Laboratory results taken from article PMC7044129, “Spexin and a Novel Cichlid-Specific Spexin Paralog Both Inhibit FSH and LH Through a Specific Galanin Receptor (Galr2b) in Tilapia” (Frontiers in Endocrinology, 2020).
No end group written: not given here.

Tests used:
[1] = system: Tilapia D2 dopamine receptor; conditions: COS7 cells, SRE-Luc and Gqi5
Experimental: (§1) EC50 values were calculated from dose response curves by means of computerized non-linear curve fitting on baseline-corrected (control) values using Prism version 6 software (GraphPad).
(1 picture or pasted object on this page, not shown here)

spexin expression = conditions: spotted scat, in vitro; cited from earlier work
Description: (§2) Spexin has been implicated in regulating the hypothalamic-pituitary-gonad (HPG) axis in some fish species. […] The first report on fish spexin in zebrafish and goldfish identified high and dynamic expression in the brain throughout the reproductive stages ([10]). […] Ovariectomized goldfish had increased hypothalamic spexin e ...

tilapia Galr2a = tilapia Galr2a (Oreochromis niloticus, UniProt A0A650AWG9); format: cell-based, Nile tilapia (Oreochromis niloticus); conditions: Gqi pathway (chimeric Gqi5 with SRE-luc, Gαi readout), COS7 cells, 6 h stimulation after 16 h serum starvation, mean ± SEM, minimum three independent transfections, triplicate wells
tilapia Galr2a, sequence (A0A650AWG9 entry or part of it): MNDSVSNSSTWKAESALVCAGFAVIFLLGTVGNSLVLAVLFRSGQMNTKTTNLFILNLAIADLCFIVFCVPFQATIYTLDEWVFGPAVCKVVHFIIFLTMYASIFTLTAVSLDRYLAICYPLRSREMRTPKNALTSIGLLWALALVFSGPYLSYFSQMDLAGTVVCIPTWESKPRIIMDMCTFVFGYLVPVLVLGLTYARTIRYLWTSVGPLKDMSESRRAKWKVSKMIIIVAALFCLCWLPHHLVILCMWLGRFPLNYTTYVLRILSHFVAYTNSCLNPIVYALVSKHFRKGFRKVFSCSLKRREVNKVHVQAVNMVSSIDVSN
Experimental: as §1

GALR2 [2] = conditions: cited from earlier work
Description: (§3) The galanergic neurotransmission system is one of the newest described signaling systems. […] Three different types of galanin receptors have been described so far in mammals: galanin receptor 1, 2, and 3 (GALR1, GALR2, and GALR3) ([14]). All of them are members of the G protein-coupled receptor (GPCR) family and act through stimulation of various seco ...

GALR3 = conditions: cited from earlier work
Description: as §3

Galr2a = conditions: cited from earlier work
Description: as §3

Galr2b = conditions: cited from earlier work
Description: as §3

LH release = conditions: goldfish; cited from earlier work
Description: as §2

[3] = system: goldfish pituitary cultures; conditions: cited from earlier work
Description: as §2

[4] = system: GnIH, GnRH-III, GpHα and FSHβ expression; conditions: sole; cited from earlier work
Description: Spexin mRNA expression levels may also be correlated with reproductive development. Increases in LH and FSH mRNA expression is seasonal and corresponds to gonadal development ([50], [51]).

[5] = system: agouti-related peptide (AgRP) expression; conditions: zebrafish; cited from earlier work
Description: (§4) Spexin plays a role in feeding behavior and metabolism in fish and mammals [reviewed in ([3])]. In the orange-spotted grouper ([11]), half-smooth tongue sole ([46]), and spotted scat ([46]), starvation increased Spx1 expression. […] This effect was also observe ...

[6] = system: appetite stimulants and anorexigenic factors in the brain; conditions: goldfish brain, central administration, cited from earlier work
Description: as §4

[7] = system: feeding behavior induced by NPY and orexin; conditions: intracerebroventricular injection; no reference printed at the sentence (preceding sentence ref 2); cited from earlier work
Description: as §4

goldfish = conditions: injection; cited from earlier work
Description: as §4

GalR2 [8] = conditions: cited from earlier work
Description: Spexin mediates its effects by activating an inhibitory G-protein (Gαi) via galanin receptor (GalR) 2/3. Like the kisspeptin, galanin, and spexin peptides, the kisspeptin and galanin receptors are related. Ancestral forms of KissR, GalR1, and GalR2/3 were identified on different VACs with 1R and 2R expanding each clade, giving rise to four KissR (KissR1, 3, 2, 4), two GalR1 (1a, 1b), two GalR2 (2a, 2b) and GalR3 paralogs ([15]). Our phylogenetic analysis supports that of Kim et al. ([15]), showing that GalRs are divided into two major clades, namely GalR1 and GalR2/3, with KissRs forming a dis ...

adrenocortical cell = conditions: mammals; cited from earlier work
Description: (§5) Spexin (SPX1; also termed neuropeptide Q) was identified first by computational methods in humans ([1]), and then also by chemical methods in goldfish ([2]). These computational methods have been attempted mostly on the basis of the characteristics of the prohormones from which active neuropeptides are processed. The mature peptide sequence contains 14 amino acids that are flanked by monobasic and dibasic proteolytic cleavage sites. […] A paralog o ...

stomach contraction = conditions: mammals; cited from earlier work
Description: as §5

[9] = system: hypothalamic spexin expression; conditions: ovariectomized goldfish, estrogen replacement; cited from earlier work
Description: as §2

[10] = system: Spx1 levels and expression; conditions: cited from earlier work
Description: as §4

NCCc1ccc(O)c(O)c1 [dopamine]
luciferase activity via tilapia D2 receptor with Gqi5 (in words) [1]: dose-dependent increase in luciferase activity

C[C@]12CC[C@@H]3c4ccc(O)cc4CC[C@H]3[C@@H]1CC[C@@H]2O [estradiol]
spexin expression (spexin expression): decreased spexin expression in a dose-dependent manner in vitro

GWTLNSAGYLLGPHAVGNHRSFSNKNGLTS-NH2 [Galanin]
EC50 (tilapia Galr2a): 0.0001 ± 5.6 log nM

Spexin: spexin of cited literature; 14 amino acid peptide hormone, species varies
functional agonism at human GALR2 (GALR2 [2]): functional agonist | functional agonism at human GALR3 (GALR3): functional agonist | functional agonism at zebrafish Galr2a (Galr2a): functional agonist | functional agonism at zebrafish Galr2b (Galr2b): functional agonist | LH release in vivo (LH release): inhibited LH release | LH release in pituitary cultures [3]: inhibited LH release | GnIH and GnRH-III expression [4]: increasing gonadotropin inhibitory hormone (GnIH) and GnRH-III expression | GpHα and FSHβ expression [4]: decreasing GpHα and FSHβ expression | AgRP expression [5]: suppressed agouti-related peptide (AgRP) expression | expression of anorexigenic factors ([6]; POMC, CART, CCK, MCH, CRH): increased expression of anorexigenic factors | expression of appetite stimulants [6]: decrease in expression of appetite stimulants (NPY, AgRP, and apelin) | NPY- and orexin-induced feeding [7]: inhibited feeding behavior induced by NPY and orexin | feeding behavior (goldfish): decreased surface feeding and increased food rejection | dissociation / receptor internalization at GalR2 (GalR2 [8]): quickly dissociated after G-protein signaling | adrenocortical cell proliferation (adrenocortical cell): inhibiting adrenocortical cell proliferation | stomach contraction (stomach contraction): inducing stomach contraction

estrogen
hypothalamic spexin expression [9]: returned expression to basal levels

insulin: insulin (cited study on spexin regulation)
circulating Spx1 and brain Spx1 expression [10]: increase circulating levels of Spx1 and its expression in the telencephalon, hypothalamus, and optic tectum
